Tests used:
[1] = Rat cerebrospinal fluid (CSF) pharmacokinetic properties; assay type: in vivo; details: compounds in Table IA; for concentration at 1 h: CSF, male Sprague-Dawley rats, PO 10 mg/kg in PEG400, 1 h post-dosing, read-out: CSF Conc. (nM @ 1 h); for Kp uu at 1 h: male, Sprague-Dawley, CSF and plasma (unbound), unbound CSF/unbound plasma ratio, rats, PO 10 mg/kg
Method: PK in rats was determined following oral dosing. For the oral (PO) experiments, a group of 6 male Sprague-Dawley rats with an indwelling catheter placed in the cisterna magna were used. The PO group was dosed with 3 or 10 mg/kg of a compound formulated as a solution in PEG400. PO doses were administered by oral gavage and delivered to the stomach using a syringe and gavage tube. Following oral dosage administration, the gavage tube was flushed with approximately 0.5 mL of water to ensure complete delivery of the full dose.
Plasma and CSF samples were collected as follows: samples of CSF and blood were collected at 1 hour and 2 hours post-dosing. CSF samples (0.05 mL) were collected through the intracisternal catheter. Blood samples (0.25 mL) were collected through retro-orbital sampling. These samples were kept on ice until processed for plasma. Blood samples were centrifuged at 3200 rpm for 5 minutes at approximately 5° C. within 1 hour of collection. Plasma was directly transferred to a 96-well plate tube (0.125 mL). Plug caps were placed on the tubes and the tubes frozen at approximately −70° C. and stored until analysis.
Plasma was collected and analyzed for the presence of compound.
The compound in question and the internal standard were extracted from plasma and CSF by precipitation. Samples were analyzed using liquid chromatography (LC) with tandem mass spectrometric detection (MS/MS) using electrospray ionization. The standard curve range was from 1 to 1000 ng/mL. Results of the compounds described herein in this assay are illustrated in Tables 4A (for compounds in Table IA) and 4B (for compounds in Table IB) below.
Kp,uu is defined as the concentration ratio of unbound drug in CSF to unbound drug in plasma. Unbound drug in plasma (or free plasma concentration) is calculated by multiplying the total plasma concentration by the unbound fraction as determined by plasma protein binding. The CSF concentration is then divided by the free plasma concentration to determine the Kp,uu. (See e.g., Di et al., J. Med. Chem., 56, 2-12 (2013))

[2] = molecular target: T1, sGC (Rattus norvegicus, UniProt P20595); assay: cGMP neuronal cell-based assay; details: rat primary hippocampal neurons; 30 μM DETA-NO; cGMP by LC-MS/MS; normalized to 10 μM Compound Y; compounds in Table IA; read-out: sGC-neuron Abs EC50
T1 construct: Rat primary neurons were isolated from fetuses of 18-day pregnant Sprague-Dawley females; endogenous in cells; host or cells: Primary rat hippocampal neurons (E18 Sprague-Dawley fetuses)
T1 sequence (P20595 1-619): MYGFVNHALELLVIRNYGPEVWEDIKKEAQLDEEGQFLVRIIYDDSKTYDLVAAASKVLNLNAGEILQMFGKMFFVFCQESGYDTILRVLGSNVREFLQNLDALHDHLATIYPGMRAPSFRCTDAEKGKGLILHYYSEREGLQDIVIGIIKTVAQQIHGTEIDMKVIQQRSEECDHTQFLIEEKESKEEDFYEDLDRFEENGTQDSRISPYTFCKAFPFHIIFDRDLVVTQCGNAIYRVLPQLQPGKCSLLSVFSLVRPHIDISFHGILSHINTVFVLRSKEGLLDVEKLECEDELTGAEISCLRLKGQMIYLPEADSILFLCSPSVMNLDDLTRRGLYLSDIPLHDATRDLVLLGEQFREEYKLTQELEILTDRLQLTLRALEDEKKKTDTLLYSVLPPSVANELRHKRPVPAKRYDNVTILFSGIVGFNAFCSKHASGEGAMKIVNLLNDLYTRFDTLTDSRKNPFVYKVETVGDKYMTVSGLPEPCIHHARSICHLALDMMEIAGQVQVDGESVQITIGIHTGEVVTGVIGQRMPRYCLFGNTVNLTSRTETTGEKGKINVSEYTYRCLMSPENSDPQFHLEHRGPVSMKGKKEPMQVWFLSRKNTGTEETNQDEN
Method: Rat primary neurons were isolated from fetuses of 18-day pregnant Sprague-Dawley females. The fetuses were collected in Hanks' balanced salt solution (HBSS) and brains were rapidly removed. The cerebral hippocampi were isolated and mechanically fragmented. Further tissue digestion was performed with 0.25% (wt/vol) trypsin solution in HBSS without Ca2+ and Mg2+ for 15 min at 37° C. After trypsination, cells were washed and resuspended in neurobasal medium supplemented with 0.5 mM L-glutamine, 12.5 uM glutamic acid, 2% B-27 and 100U/mL penicillin, and 100 μg/mL streptomycin. Cells were plated at a density of 4×10^4 cells/well in a poly-D-lysine coated 384-well flat clear-bottom plate (Corning Cat No 354662). Cells were incubated 6-7 days at 37° C. in a humidified chamber with 5% CO2. Media was removed and cells were washed 1× with HBSS containing Ca2+ and Mg2+, and replaced with 40 uL HBSS containing 0.5 mM IBMX, and incubated for 15 minutes at 37° C. 10 uL of a 5× stock of test compounds with diethylenetriamine NONOate (DETA-NO) was added. Final concentration of DETA-NO was 30 μM. Cells were incubated for 20 min at 37° C. Medium was removed, 50 uL of ice-cold 10% acetic acid was added, and incubated for 60 minutes at 4° C. Following centrifugation at 4° C. for 5 minutes at 1000×g to pellet cell debris, the supernatant was aspirated to a clean plate and the samples were analyzed for cGMP content. cGMP concentrations were determined from each sample using LC-MS/MS.
Data were normalized to a high control using the following equation: 100*(Sample−Low Control)/(High Control−Low Control), where the low control is the average of 15 samples treated with 1% DMSO, and the high control is the average of 15 samples treated with 10 μM of the known sGC stimulator Compound Y (depicted in Example 2). Data were fit using a 4-parameter fit (log(agonist) vs. response—variable slope) using GraphPad Prism Software v.5. n=2 for all compounds. The Absolute EC50 was interpolated from the curve fit and is defined as the concentration at which a given compound elicits 50% of the high control response after data normalization. Compounds failing to elicit a minimum response of 50% are reported as >30 μM. For compounds run in duplicate or n higher than 2, the result herein given is the geometric mean of the several results obtained.

| Compound | concentration at 1 h [1] [nM] | Kp uu at 1 h [1] | EC50 [2] [nM] |
| --- | --- | --- | --- |
| Fc1cccc(Cn2nc(-c3nc(C(F)(F)F)n[nH]3)c3cccnc32)c1F [Compound I-48, 1-(2,3-Difluorobenzyl)-3-(3-(trifluoromethyl)-1H-1,2,4-triazol-5-yl)-1H-pyrazolo[3,4-b]pyridine] | 41.6 | 2.52 | ≤ 100 |
| FC(F)(F)c1n[nH]c(-c2nn(CCC(F)(F)C(F)(F)F)c3ncccc23)n1 [Compound I-2, 1-(3,3,4,4,4-pentafluorobutyl)-3-(3-(trifluoromethyl)-1H-1,2,4-triazol-5-yl)-1H-pyrazolo[3,4-b]pyridine] | 16.6 | 0.24 | ≤ 100 |
| Fc1ccccc1Cc1nn(-c2nc(C(F)(F)F)n[nH]2)c2cccnc12 [Compound I-31, 3-(2-Fluorobenzyl)-1-(3-(trifluoromethyl)-1H-1,2,4-triazol-5-yl)-1H-pyrazolo[4,3-b]pyridine] | 66.6 | 3.84 | ≤ 100 |
| FC(F)(F)c1n[nH]c(-c2nn(Cc3cncnc3)c3ncccc23)n1 [Compound I-4, 1-(Pyrimidin-5-ylmethyl)-3-(3-(trifluoromethyl)-1H-1,2,4-triazol-5-yl)-1H-pyrazolo[3,4-b]pyridine] | 79.5 | 1.98 | ≤ 100 |
| N#Cc1n[nH]c(-c2nn(Cc3ccccc3F)c3ncccc23)n1 [Compound I-41] | 26.6 | 0.36 | ≤ 100 |

Further lines, results first:

| concentration at 1 h [1] [nM] | Kp uu at 1 h [1] | EC50 [2] [nM] | Compound |
| --- | --- | --- | --- |
| 17.4 | 2.2 | ≤ 100 | Fc1cccc(Cc2nn(-c3nc(C(F)(F)F)n[nH]3)c3cccnc23)c1F [Compound I-105, 3-(2,3-Difluorobenzyl)-1-(3-(trifluoromethyl)-1H-1,2,4-triazol-5-yl)-1H-pyrazolo[4,3-b]pyridine] |
| 104 | 2.81 | ≤ 100 | Fc1ccccc1Cc1nn(-c2nc(C(F)F)n[nH]2)c2cccnc12 [Compound I-101, 1-(3-(Difluoromethyl)-1H-1,2,4-triazol-5-yl)-3-(2-fluorobenzyl)-1H-pyrazolo[4,3-b]pyridine] |
| 172 | 1.57 | ≤ 100 | FC(F)(F)c1n[nH]c(-c2nn(Cc3ccccc3)c3ncccc23)n1 [Compound I-49, 1-Benzyl-3-(3-(trifluoromethyl)-1H-1,2,4-triazol-5-yl)-1H-pyrazolo[3,4-b]pyridine] |
| 31.5 | 2.41 | ≤ 100 | Fc1cccc(Cn2nc(-c3nc(Cl)n[nH]3)c3cccnc32)c1F [Compound I-86, 3-(3-Chloro-1H-1,2,4-triazol-5-yl)-1-(2,3-difluorobenzyl)-1H-pyrazolo[3,4-b]pyridine] |
| 21.5 | 1.54 | ≤ 100 | Fc1ccccc1Cn1nc(-c2nc(C3CC3(F)F)n[nH]2)c2cccnc21 (stereo not drawn) [Compound I-96, 3-(3-(2,2-Difluorocyclopropyl)-1H-1,2,4-triazol-5-yl)-1-(2-fluorobenzyl)-1H-pyrazolo[3,4-b]pyridine] |
| 83 | 0.62 | ≤ 100 | Cc1ncc(Cn2nc(-c3nc(C(F)(F)F)n[nH]3)c3ccccc32)cn1 [Compound I-62, 1-((2-methylpyrimidin-5-yl)methyl)-3-(3-(trifluoromethyl)-1H-1,2,4-triazol-5-yl)-1H-indazole] |
| 13.1 | 0.54 | ≤ 100 | OCc1n[nH]c(-c2nn(Cc3ccccc3F)c3ncccc23)n1 [Compound I-64, (5-(1-(2-fluorobenzyl)-1H-pyrazolo[3,4-b]pyridin-3-yl)-1H-1,2,4-triazol-3-yl)methanol] |
